Test results from PMC4777897 (Progress in neuro-psychopharmacology & biological psychiatry, 2015).

How the values were obtained:
rats = conditions: ref Schroeder et al., 2013; cited from earlier work
[1] = system: participants who met criteria for cocaine use disorder; experiment: Reinforcing effects: choice session, cocaine vs money self-administration; assay type: in vivo, human; conditions: Day 13; nepicastat 0 or 160 mg; cocaine 0 or 20 mg IV
[2] = system: DA and NE release in mPFC and NAc; conditions: rats, microdialysis; ref Devoto et al., 2014; cited from earlier work
[3] = Plasma pharmacokinetics of cocaine after 10 mg IV infusion; conditions: cocaine 10 mg IV
[4] = system: participants who met criteria for cocaine use disorder; experiment: Adverse events, inpatient study of oral nepicastat with IV cocaine; assay type: in vivo, human
[5] = system: participants who met criteria for cocaine use disorder; experiment: Cocaine-induced cardiovascular effects; assay type: in vivo, human; conditions: nepicastat 0, 80, 160 mg; cocaine 0, 10, 20, 40 mg IV; n = 13
[6] = system: participants who met criteria for cocaine use disorder; experiment: Cocaine-induced subjective effects; assay type: in vivo, human; conditions: VAS
[7] = Treatment–Cocaine period, nepicastat group n = 14

## Cl.NCc1c[nH]c(=S)n1[C@H]1CCc2c(F)cc(F)cc2C1.O [nepicastat, (S)-5-aminomethyl-1-(5,7-difluoro-1,2,3,4-tetrahydronaphth-2-yl)-1,3-dihydroimidazole-2-thione hydrochloride monohydrate]
rats
  Breakpoint for cocaine: significantly lowered
[1]
  Main effect on choices for cocaine vs money (ANOVA): did not reveal a main effect
[2]
  DA release in the mPFC and NAc: increasing DA release in the mPFC but not in the NAc
[3]; Day 3 vs Day 11, data not shown
  Effect on PK parameters of benzoylecgonine or ecgonine methyl ester: None of the PK parameters for benzoylecgonine or ecgonine methyl ester showed statistically significant changes
[3]; oral nepicastat 160 mg
  Effect on kinetics, metabolism or clearance of cocaine or its metabolites: did not change
[4]; [7]
  Incidence of Abnormal dreams: 0 (0) number (%) of subjects
  Incidence of Arthralgia: 2 (14) number (%) of subjects
  Incidence of Back pain: 0 (0) number (%) of subjects
  Incidence of Depressed mood: 1 (7) number (%) of subjects
  Incidence of Dizziness: 0 (0) number (%) of subjects
  Incidence of Dyspepsia: 2 (14) number (%) of subjects
  Incidence of Gastroesophageal reflux disease: 3 (21) number (%) of subjects
  Incidence of Headache: 2 (14) number (%) of subjects
  Incidence of Insomnia: 4 (29) number (%) of subjects
  Incidence of Myalgia: 0 (0) number (%) of subjects
  Incidence of Nausea: 1 (7) number (%) of subjects
  Incidence of Neck pain: 2 (14) number (%) of subjects
  Incidence of Vessel puncture site hematoma: 0 (0) number (%) of subjects
  Incidence of Vessel puncture site pain: 4 (29) number (%) of subjects
[4]; oral nepicastat 80 and 160 mg during IV cocaine exposure
  Safety and tolerability (number, type, severity and duration of AEs vs placebo): safe and well-tolerated
[5]
  Main effect on peak heart rate (ANOVA): one was detected
  Main effect on peak systolic or diastolic blood pressure (ANOVA): did not reveal a main effect
[6]; nepicastat 80 and 160 mg oral with IV cocaine
  Effect on negative subjective effects: did not increase
[6]; nepicastat 80 and 160 mg oral, n = 13
  Reduction of the positive subjective effects produced by cocaine: ~ 25%
